# Measured values from US20250288561A1, “NEZULCITINIB FOR DELIVERY BY NEBULIZED ORAL INHALATION” (THERAVANCE BIOPHARMA R&D IP, LLC, priority 2022, published 2025).
# Like-named read-outs stand apart in the source and are kept apart here.
# What was measured:
# [1] = Phase 1 open-label study: plasma PK of single inhaled nezulcitinib doses under supplemental oxygenation scenarios; assay type: in vivo, human; settings: for AUC % extrap / CL/F / DN AUC0-inf / DN AUC0-t / DN Cmax / Kel / Tmax / AUC(0-inf) / Cmax / AUC(0-t) / Vd/F / half-life: plasma; for AUC % extrap / CL/F / DN AUC0-inf / DN AUC0-t / DN Cmax / Kel / AUC(0-inf) / Cmax / AUC(0-t) / Vd/F / half-life: arithmetic mean; for Tmax: median; for Vd/F: read-out: Vz/F; for half-life: read-out: t½ (converted)
# Text: Part A: assessed the plasma PK of nezulcitinib following single inhaled doses administered in the setting of various supplemental oxygenation scenarios in healthy participants.
# This was a Phase 1, open-label, fixed-sequence, 4-period study to evaluate the PK and safety of single inhaled doses of nezulcitinib, administered under different supplemental oxygenation scenarios.
# Participants received a single inhaled dose of nezulcitinib using a nebulizer device on Day 1 of each administration period, under different supplementary oxygenation conditions and under fasting conditions.
# Administrations were as follows: • Administration A (test): 3 mg nezulcitinib delivered by nasal inhalation via the Aerogen Solo integrated with a high-flow nasal cannula circuit delivering supplemental oxygen at a flow rate of 30 L/min. • Administration B (reference): 3 mg nezulcitinib delivered by oral inhalation via the Aerogen Solo coupled with the Aerogen Ultra handheld device, in the presence of supplemental oxygen delivery via low-flow nasal cannula at 6 L/min. • Administration C (test): 3 mg nezulcitinib delivered by oral inhalation via the Aerogen Solo coupled with the Aerogen Ultra handheld device, in the presence of supplemental oxygen delivery via high-flow nasal cannula at a flow rate of 30 L/min. • Administration D1 (test): 3 mg nezulcitinib delivered by oral inhalation via the Aerogen Solo coupled with the Aerogen Ultra handheld device, in the presence of supplemental oxygen delivery via high-flow nasal cannula at a flow rate of 50 L/min. • Administration D2 (test): 9 mg nezulcitinib delivered by oral inhalation via the Aerogen Solo coupled with the Aerogen Ultra handheld device, in the presence of supplemental oxygen delivery via high-flow nasal cannula at a flow rate of 50 L/min.
# Serial blood samples were collected prior to and until 48 hours following dosing on Day 1 of each period to determine the concentration of nezulcitinib in plasma.
# The following non-compartmental PK parameters were calculated for nezulcitinib, as appropriate:
# • AUC0-t: The area under the concentration time curve, from time 0 to the last observed non-zero concentration, as calculated by the linear trapezoidal method. • AUC0-24: The area under the concentration time curve, from time 0 to the 24 hour time point, as calculated by the linear trapezoidal method. • AUC0-inf: The area under the concentration time curve from time 0 extrapolated to infinity. AUC0-inf was calculated as the sum of AUC0-t plus the ratio of the last measurable plasma concentration to the elimination rate constant. • AUC % extrap: Percent of AUC0-inf extrapolated, represented as (1−AUC0-t/AUC0-inf)*100. • CL/F: Apparent total plasma clearance after oral (extravascular) administration, calculated as Dose/AUC0-inf. • Cmax: Maximum observed concentration. • Tmax: Time to reach Cmax. If the maximum value occurs at more than one time point, Tmax is defined as the first time point with this value. • Kel: Apparent first order terminal elimination rate constant calculated from a semi-log plot of the plasma concentration versus time curve. The parameter was calculated by linear least-squares regression analysis using the maximum number of points in the terminal log-linear phase (e.g., three or more non-zero plasma concentrations). • t1/2: Apparent first-order terminal elimination half-life was calculated as 0.693/Kel. • Vz/F: Apparent volume of distribution during the terminal elimination phase after oral (extravascular) administration, calculated as Dose/(AUC0-inf*Kel).
# JAK2 = JAK2 (Homo sapiens, UniProt O60674); assay: JAK enzyme inhibition; assay type: biochemical
# Sequence of JAK2 (O60674 whole entry): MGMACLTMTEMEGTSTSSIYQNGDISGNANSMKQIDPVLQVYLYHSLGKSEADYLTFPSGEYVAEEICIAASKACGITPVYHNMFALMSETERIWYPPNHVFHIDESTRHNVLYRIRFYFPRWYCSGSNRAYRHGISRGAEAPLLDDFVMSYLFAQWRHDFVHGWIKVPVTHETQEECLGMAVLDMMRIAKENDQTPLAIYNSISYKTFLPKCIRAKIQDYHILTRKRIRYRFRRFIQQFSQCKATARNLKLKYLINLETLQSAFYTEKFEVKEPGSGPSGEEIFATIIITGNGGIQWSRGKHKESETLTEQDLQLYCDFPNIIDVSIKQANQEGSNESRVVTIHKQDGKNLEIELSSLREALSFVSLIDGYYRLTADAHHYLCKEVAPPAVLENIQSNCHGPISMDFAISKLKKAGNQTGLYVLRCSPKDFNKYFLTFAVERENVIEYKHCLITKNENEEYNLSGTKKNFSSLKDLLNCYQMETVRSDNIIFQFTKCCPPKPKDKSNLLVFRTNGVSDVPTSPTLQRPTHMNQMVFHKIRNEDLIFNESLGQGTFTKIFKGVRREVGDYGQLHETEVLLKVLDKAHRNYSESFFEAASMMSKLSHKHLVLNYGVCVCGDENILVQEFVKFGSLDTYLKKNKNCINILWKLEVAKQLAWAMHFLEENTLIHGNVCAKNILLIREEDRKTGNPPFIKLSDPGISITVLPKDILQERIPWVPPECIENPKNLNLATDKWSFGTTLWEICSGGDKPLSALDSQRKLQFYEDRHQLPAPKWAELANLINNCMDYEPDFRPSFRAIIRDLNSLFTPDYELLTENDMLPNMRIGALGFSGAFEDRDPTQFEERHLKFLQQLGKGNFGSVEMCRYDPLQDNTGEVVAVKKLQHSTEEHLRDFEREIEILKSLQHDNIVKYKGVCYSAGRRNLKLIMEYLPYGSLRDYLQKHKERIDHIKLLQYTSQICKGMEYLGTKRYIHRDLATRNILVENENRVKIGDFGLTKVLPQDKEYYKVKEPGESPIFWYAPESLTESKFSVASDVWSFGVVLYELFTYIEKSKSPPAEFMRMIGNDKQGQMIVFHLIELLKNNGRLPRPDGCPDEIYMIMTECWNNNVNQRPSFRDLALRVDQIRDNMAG
# IL-6 signaling = assay: Inhibition of cytokine signaling; assay type: cell-based
# IFNγ secretion = assay: Mixed lymphocyte reaction assay; assay type: cell-based
# Text: The mixed lymphocyte reaction assay is an in-vitro assay that mimics transplant rejection.
# [2] = Administration A: single 3 mg, nasal inhalation via high-flow nasal cannula circuit, oxygen 30 L/min
# [3] = Administration B: single 3 mg, oral inhalation, low-flow nasal cannula oxygen 6 L/min
# [4] = Administration C: single 3 mg, oral inhalation, high-flow nasal cannula oxygen 30 L/min
# [5] = Administration D1: single 3 mg, oral inhalation, high-flow nasal cannula oxygen 50 L/min
# [6] = Administration D2: single 9 mg, oral inhalation, high-flow nasal cannula oxygen 50 L/min
# [7] = human, inhaled or intranasal, 3 mg, Administration A: single 3 mg, nasal inhalation via high-flow nasal cannula circuit, oxygen 30 L/min
# [8] = human, inhaled, 3 mg, Administration B: single 3 mg, oral inhalation, low-flow nasal cannula oxygen 6 L/min
# [9] = human, inhaled, 3 mg, Administration C: single 3 mg, oral inhalation, high-flow nasal cannula oxygen 30 L/min
# [10] = human, inhaled, 3 mg, Administration D1: single 3 mg, oral inhalation, high-flow nasal cannula oxygen 50 L/min
# [11] = human, inhaled, 9 mg, Administration D2: single 9 mg, oral inhalation, high-flow nasal cannula oxygen 50 L/min
smiles,measurement,setting,value
"CCc1cc(O)ccc1-c1ccc2c(-c3nc4c([nH]3)CN(C(C)C)[C@H](C(=O)N3CC(N(C)C)C3)C4)n[nH]c2c1 [Compound 1, (S)-(3-(dimethylamino)azetidin-1-yl)(2-(6-(2-ethyl-4-hydroxyphenyl)-1H-indazol-3-yl)-5-isopropyl-4,5,6,7-tetrahydro-3H-imidazo[4,5-c]pyridin-6-yl)methanone]","plasma concentrations, effect of increasing flow rate from 30 L/min (Administration C) to 50 L/min (Administration D1)",[1]; 3 mg oral inhalation,did not impact the plasma concentrations
same,"plasma concentrations, Administration C compared to Administration A","[1]; 3 mg oral inhalation with high-flow 30 L/min vs 3 mg nasal through the high-flow circuit 30 L/min, FIG. 3",sustained increased plasma concentrations
same,AUC % extrap,[1]; [2],4.451%
same,CL/F,[1]; [2],526.8 L/h
same,DN AUC0-inf,[1]; [2],2.586 ± [ng*hr/mL]/mg
same,DN AUC0-t,[1]; [2],2.480 ± [ng*hr/mL]/mg
same,DN Cmax,[1]; [2],0.5610 ± [ng/mL]/mg
same,Kel,[1]; [2],0.07122 ± 1 h⁻¹
same,Tmax,[1]; [2],1.000 h
same,AUC % extrap,[1]; [3],3.152%
same,CL/F,[1]; [3],287.0 L/h
same,DN AUC0-inf,[1]; [3],18.00 ± [ng*hr/mL]/mg
same,DN AUC0-t,[1]; [3],17.46 ± [ng*hr/mL]/mg
same,DN Cmax,[1]; [3],4.658 ± [ng/mL]/mg
same,Kel,[1]; [3],0.07667 ± 1 h⁻¹
same,AUC % extrap,[1]; [4],3.898%
same,CL/F,[1]; [4],128.9 L/h
same,DN AUC0-inf,[1]; [4],18.24 ± [ng*hr/mL]/mg
same,DN AUC0-t,[1]; [4],17.69 ± [ng*hr/mL]/mg
same,DN Cmax,[1]; [4],4.725 ± [ng/mL]/mg
same,Kel,[1]; [4],0.04804 ± 1 h⁻¹
same,AUC % extrap,[1]; [5],2.813%
same,CL/F,[1]; [5],146.9 L/h
same,DN AUC0-inf,[1]; [5],17.44 ± [ng*hr/mL]/mg
same,DN AUC0-t,[1]; [5],16.94 ± [ng*hr/mL]/mg
same,DN Cmax,[1]; [5],4.649 ± [ng/mL]/mg
same,Kel,[1]; [5],0.06152 ± 1 h⁻¹
same,Tmax,[1]; [5],1.000 h
same,AUC % extrap,[1]; [6],2.727%
same,CL/F,[1]; [6],312.3 L/h
same,DN AUC0-inf,[1]; [6],16.89 ± [ng*hr/mL]/mg
same,DN AUC0-t,[1]; [6],16.53 ± [ng*hr/mL]/mg
same,DN Cmax,[1]; [6],4.858 ± [ng/mL]/mg
same,Kel,[1]; [6],0.05057 ± 1 h⁻¹
same,Tmax,"[1]; human, inhaled, Administration B: single 3 mg, oral inhalation, low-flow nasal cannula oxygen 6 L/min, read-out: Tmax",1 h
same,Tmax,"[1]; human, inhaled, Administration D2: single 9 mg, oral inhalation, high-flow nasal cannula oxygen 50 L/min, read-out: Tmax",1 h
same,AUC(0-inf),[1]; [7],7.76 ng·h/mL
same,Cmax,[1]; [7],1.68 ng/mL
same,AUC(0-t),"[1]; human, inhaled or intranasal, 3 mg, Administration A: single 3 mg, nasal inhalation via high-flow nasal cannula circuit, oxygen 30 L/min, read-out: AUC0-24",7.06 ng·h/mL
same,AUC(0-t),"[1]; human, inhaled or intranasal, 3 mg, Administration A: single 3 mg, nasal inhalation via high-flow nasal cannula circuit, oxygen 30 L/min, read-out: AUC0-t",7.44 ng·h/mL
same,Vd/F,[1]; [7],7400 L
same,half-life,[1]; [7],10.2 h
same,AUC(0-inf),[1]; [8],54 ng·h/mL
same,Cmax,[1]; [8],14 ng/mL
same,AUC(0-t),"[1]; human, inhaled, 3 mg, Administration B: single 3 mg, oral inhalation, low-flow nasal cannula oxygen 6 L/min, read-out: AUC0-24",49.1 ng·h/mL
same,AUC(0-t),"[1]; human, inhaled, 3 mg, Administration B: single 3 mg, oral inhalation, low-flow nasal cannula oxygen 6 L/min, read-out: AUC0-t",52.4 ng·h/mL
same,Vd/F,[1]; [8],1770 L
same,half-life,[1]; [8],12.9 h
same,AUC(0-inf),[1]; [9],54.7 ng·h/mL
same,Cmax,[1]; [9],14.2 ng/mL
same,AUC(0-t),"[1]; human, inhaled, 3 mg, Administration C: single 3 mg, oral inhalation, high-flow nasal cannula oxygen 30 L/min, read-out: AUC0-24",49.9 ng·h/mL
same,AUC(0-t),"[1]; human, inhaled, 3 mg, Administration C: single 3 mg, oral inhalation, high-flow nasal cannula oxygen 30 L/min, read-out: AUC0-t",53.1 ng·h/mL
same,Vd/F,[1]; [9],3920 L
same,half-life,[1]; [9],15.1 h
same,AUC(0-inf),[1]; [10],52.3 ng·h/mL
same,Cmax,[1]; [10],13.9 ng/mL
same,AUC(0-t),"[1]; human, inhaled, 3 mg, Administration D1: single 3 mg, oral inhalation, high-flow nasal cannula oxygen 50 L/min, read-out: AUC0-24",47.9 ng·h/mL
same,AUC(0-t),"[1]; human, inhaled, 3 mg, Administration D1: single 3 mg, oral inhalation, high-flow nasal cannula oxygen 50 L/min, read-out: AUC0-t",50.8 ng·h/mL
same,Vd/F,[1]; [10],1780 L
same,half-life,[1]; [10],12.3 h
same,AUC(0-inf),[1]; [11],152 ng·h/mL
same,Cmax,[1]; [11],43.7 ng/mL
same,AUC(0-t),"[1]; human, inhaled, 9 mg, Administration D2: single 9 mg, oral inhalation, high-flow nasal cannula oxygen 50 L/min, read-out: AUC0-24",141 ng·h/mL
same,AUC(0-t),"[1]; human, inhaled, 9 mg, Administration D2: single 9 mg, oral inhalation, high-flow nasal cannula oxygen 50 L/min, read-out: AUC0-t",149 ng·h/mL
same,Vd/F,[1]; [11],7310 L
same,half-life,[1]; [11],14.1 h
same,"plasma concentration, 9 mg (Administration D2) vs 3 mg (Administration D1)","[1]; oral inhalation, high-flow 50 L/min, FIG. 6",approximately a dose-proportional increase in plasma concentration
same,inhibition of JAK2,JAK2,potent inhibitor
same,inhibition of IL-6 signaling,IL-6 signaling,shown to inhibit
same,inhibition of IFNγ secretion,IFNγ secretion,effectively inhibit
